Assay results taken from ChEMBL document CHEMBL5143671, “Discovery of (R)-(3-fluoropyrrolidin-1-yl)(6-((5-(trifluoromethyl)pyridin-2-yl)oxy)quinolin-2-yl)methanone (ABBV-318) and analogs as small molecule Nav1.7/ Nav1.8 blockers for the treatment of pain” (Bioorg Med Chem, 2022).
Values after ≈ are worked out from the molar mass of the structure shown.

Tests used:
in vitro = conditions: PAMPA
[1] = Drug concentration in plasma of monoiodoacetate-induced Sprague-Dawley rat model of osteoarthritis at 3 mg/kg, po administered for 5 days and measured after 15 mins; assay type: ADME, organism-based; conditions: time 5 day
Rattus norvegicus [2] = species: Rattus norvegicus; experiment: animal or person; conditions: Sprague-Dawley
[3] = Ratio of free drug concentration in brain to plasma of rat; assay type: ADME, cell-free; conditions: brain and plasma
in vivo [4] = conditions: Sprague-Dawley, rat, po
[5] = Drug concentration in brain of monoiodoacetate-induced Sprague-Dawley rat model of osteoarthritis at 3 mg/kg, po administered for 5 days and measured after 15 mins; assay type: ADME, organism-based; conditions: time 5 day, read-out: Ct
[6] = rat, in vivo, po
physchem [7] = conditions: phosphate buffer
[8] = Drug concentration in brain of monoiodoacetate-induced Sprague-Dawley rat model of osteoarthritis at 30 mg/kg, po administered for 5 days and measured after 15 mins; assay type: ADME, organism-based; conditions: time 5 day, read-out: Ct
[9] = Toxicity in rat assessed as phospholipidosis measured after 5 days; conditions: 120 h, time 5 day
[10] = Toxicity in rat assessed as phospholipidosis measured after 10 days; conditions: 240 h, time 10 day
[11] = molecular target: Sodium channel protein type 2 subunit alpha (Homo sapiens, UniProt Q99250); experiment: Inhibition of recombinant human Nav1.2 expressed in HEK293 cells incubated for 3 mins by FRET based membrane potential assay; assay type: cell-based
[12] = Drug concentration in brain of monoiodoacetate-induced Sprague-Dawley rat model of osteoarthritis at 10 mg/kg, po administered for 5 days and measured after 15 mins; assay type: ADME, organism-based; conditions: time 5 day, read-out: Ct
[13] = Drug concentration in plasma of monoiodoacetate-induced Sprague-Dawley rat model of osteoarthritis at 30 mg/kg, po administered for 5 days and measured after 15 mins; assay type: ADME, organism-based; conditions: time 5 day
in vivo [14] = conditions: Sprague-Dawley, rat, po; remark: listed apart in the source
[15] = Drug concentration in plasma of monoiodoacetate-induced Sprague-Dawley rat model of osteoarthritis at 10 mg/kg, po administered for 5 days and measured after 15 mins; assay type: ADME, organism-based; conditions: time 5 day
physchem [16] = conditions: octanol/water
[17] = molecular target: Voltage-gated inwardly rectifying potassium channel KCNH2 (Homo sapiens, UniProt Q12809);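 further: hERG channel blockade measured by electrophysiology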
Rattus norvegicus [18] = experiment: Antinociceptive activity in monoiodoacetate-induced Sprague-Dawley rat model of osteoarthritis at 10 mg/kg, po administered for 5 days and measured after 180 mins by grip force testing relative to control; assay type: functional; conditions: time 5 day
Rattus norvegicus [19] = experiment: Antinociceptive activity in monoiodoacetate-induced Sprague-Dawley rat model of osteoarthritis at 3 mg/kg, po administered for 5 days and measured after 180 mins by grip force testing relative to control; assay type: functional; conditions: time 5 day
Rattus norvegicus [20] = experiment: Antinociceptive activity in monoiodoacetate-induced Sprague-Dawley rat model of osteoarthritis at 30 mg/kg, po administered for 5 days and measured after 180 mins by grip force testing relative to control; assay type: functional; conditions: time 5 day
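Wherever logD is given: distribution coefficient quantified using high-throughput LC-MS.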
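Wherever solubility is given: determined using a high-throughput solubility method.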

Sequence of Voltage-gated inwardly rectifying potassium channel KCNH2 (Q12809 whole entry): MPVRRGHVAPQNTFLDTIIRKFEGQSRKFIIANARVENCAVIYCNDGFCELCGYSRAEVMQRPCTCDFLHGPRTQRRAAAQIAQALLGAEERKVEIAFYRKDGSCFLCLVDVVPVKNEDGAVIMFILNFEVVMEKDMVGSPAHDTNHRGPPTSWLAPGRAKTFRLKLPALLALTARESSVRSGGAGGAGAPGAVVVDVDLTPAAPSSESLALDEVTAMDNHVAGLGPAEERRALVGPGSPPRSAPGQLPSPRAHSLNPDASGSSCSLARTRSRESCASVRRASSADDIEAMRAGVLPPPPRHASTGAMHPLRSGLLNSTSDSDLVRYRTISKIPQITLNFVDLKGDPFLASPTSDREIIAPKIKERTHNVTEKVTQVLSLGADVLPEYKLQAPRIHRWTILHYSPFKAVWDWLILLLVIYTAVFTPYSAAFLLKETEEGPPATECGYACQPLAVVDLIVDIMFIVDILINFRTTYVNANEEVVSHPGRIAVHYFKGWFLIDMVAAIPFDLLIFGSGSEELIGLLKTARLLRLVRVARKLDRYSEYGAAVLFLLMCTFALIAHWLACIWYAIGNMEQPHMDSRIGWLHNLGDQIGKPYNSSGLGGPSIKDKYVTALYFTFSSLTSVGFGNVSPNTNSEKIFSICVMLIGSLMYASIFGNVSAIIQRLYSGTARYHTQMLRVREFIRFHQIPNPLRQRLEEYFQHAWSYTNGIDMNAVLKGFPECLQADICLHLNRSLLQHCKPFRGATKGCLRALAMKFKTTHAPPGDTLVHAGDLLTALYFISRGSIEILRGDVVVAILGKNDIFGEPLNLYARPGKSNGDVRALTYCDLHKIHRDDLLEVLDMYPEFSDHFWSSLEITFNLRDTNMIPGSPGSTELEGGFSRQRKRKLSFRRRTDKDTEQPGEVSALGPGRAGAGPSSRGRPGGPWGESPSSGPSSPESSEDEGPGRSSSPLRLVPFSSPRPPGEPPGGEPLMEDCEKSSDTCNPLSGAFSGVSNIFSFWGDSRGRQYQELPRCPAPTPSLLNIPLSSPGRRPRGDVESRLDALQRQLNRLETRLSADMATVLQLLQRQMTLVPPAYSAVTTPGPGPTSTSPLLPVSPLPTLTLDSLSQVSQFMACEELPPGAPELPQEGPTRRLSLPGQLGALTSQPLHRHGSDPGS
Sequence of Sodium channel protein type 2 subunit alpha (Q99250 whole entry): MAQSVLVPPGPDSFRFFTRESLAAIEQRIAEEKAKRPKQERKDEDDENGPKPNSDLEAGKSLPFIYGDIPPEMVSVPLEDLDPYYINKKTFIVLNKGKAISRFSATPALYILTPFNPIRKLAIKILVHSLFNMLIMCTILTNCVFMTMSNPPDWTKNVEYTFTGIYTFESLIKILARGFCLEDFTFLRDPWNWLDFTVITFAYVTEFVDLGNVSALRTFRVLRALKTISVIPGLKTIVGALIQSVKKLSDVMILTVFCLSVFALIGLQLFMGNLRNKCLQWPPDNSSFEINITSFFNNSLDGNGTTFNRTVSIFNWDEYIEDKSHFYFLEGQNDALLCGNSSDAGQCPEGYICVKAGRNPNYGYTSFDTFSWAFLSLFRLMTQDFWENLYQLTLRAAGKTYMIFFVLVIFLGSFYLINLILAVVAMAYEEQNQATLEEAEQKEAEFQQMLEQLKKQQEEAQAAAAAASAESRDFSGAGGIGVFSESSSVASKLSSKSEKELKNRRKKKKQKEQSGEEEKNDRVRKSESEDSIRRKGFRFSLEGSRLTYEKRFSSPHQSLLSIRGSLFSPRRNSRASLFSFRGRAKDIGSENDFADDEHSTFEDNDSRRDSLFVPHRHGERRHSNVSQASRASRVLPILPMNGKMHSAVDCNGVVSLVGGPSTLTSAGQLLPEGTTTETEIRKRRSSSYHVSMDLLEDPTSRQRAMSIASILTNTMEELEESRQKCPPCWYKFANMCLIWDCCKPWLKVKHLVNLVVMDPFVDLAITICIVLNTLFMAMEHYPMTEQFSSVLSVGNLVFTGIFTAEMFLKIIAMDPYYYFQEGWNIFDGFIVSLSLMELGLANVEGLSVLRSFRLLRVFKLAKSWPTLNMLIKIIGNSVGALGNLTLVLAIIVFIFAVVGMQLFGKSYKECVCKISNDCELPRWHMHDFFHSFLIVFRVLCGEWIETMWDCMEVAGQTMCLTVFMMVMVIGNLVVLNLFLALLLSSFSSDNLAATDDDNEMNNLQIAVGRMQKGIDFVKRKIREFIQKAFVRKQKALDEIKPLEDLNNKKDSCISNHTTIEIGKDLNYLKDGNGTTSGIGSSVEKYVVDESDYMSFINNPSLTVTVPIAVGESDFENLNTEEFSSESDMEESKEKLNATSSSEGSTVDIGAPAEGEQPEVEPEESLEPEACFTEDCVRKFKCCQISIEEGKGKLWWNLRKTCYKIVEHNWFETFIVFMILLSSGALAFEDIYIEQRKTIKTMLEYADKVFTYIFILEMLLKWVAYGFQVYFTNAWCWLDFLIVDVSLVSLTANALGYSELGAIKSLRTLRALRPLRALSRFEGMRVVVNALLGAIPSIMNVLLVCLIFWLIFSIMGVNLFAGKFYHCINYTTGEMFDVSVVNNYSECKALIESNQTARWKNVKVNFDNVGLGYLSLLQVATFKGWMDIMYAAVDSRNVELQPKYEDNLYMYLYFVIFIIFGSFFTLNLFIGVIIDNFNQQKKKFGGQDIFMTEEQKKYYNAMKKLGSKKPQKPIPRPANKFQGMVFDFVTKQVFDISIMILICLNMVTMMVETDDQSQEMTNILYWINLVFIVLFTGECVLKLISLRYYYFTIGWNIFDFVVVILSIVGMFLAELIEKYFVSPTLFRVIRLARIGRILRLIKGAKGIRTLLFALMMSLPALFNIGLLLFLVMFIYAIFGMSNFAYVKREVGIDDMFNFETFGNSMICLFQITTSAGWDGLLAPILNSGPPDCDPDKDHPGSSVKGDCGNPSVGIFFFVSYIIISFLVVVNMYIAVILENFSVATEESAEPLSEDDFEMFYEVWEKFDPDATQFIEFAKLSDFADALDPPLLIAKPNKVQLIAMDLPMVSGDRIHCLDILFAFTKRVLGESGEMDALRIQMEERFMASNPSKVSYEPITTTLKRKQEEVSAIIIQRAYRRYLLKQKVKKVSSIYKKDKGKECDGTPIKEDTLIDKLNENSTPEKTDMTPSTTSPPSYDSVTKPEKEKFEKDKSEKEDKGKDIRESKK

For `O=C(c1ccc2cc(Oc3ccc(C(F)F)cn3)ccc2n1)N1CCNCC1`, the Papp (in vitro) was 3.3 ×10⁻⁶ cm/s, the concentration at 120 h [1] was 1000 ng/mL and the EC50 (Rattus norvegicus [2]) was 0.45 µg/mL (≈ 1.17 µM). It also gave a Kp uu [3] of 0.14, a bioavailability (in vivo [4]) of 96% and a concentration at 120 h [5] of 200 ng/mL. It also gave a Vdss [6] of 5.42 L/kg, a solubility (physchem [7]) of 150 µM (≈ 57.7 µg/mL) and a concentration at 120 h [8] of 1560 ng/mL. The Activity [9] was “Non-Toxic”, the Activity [10] was “Toxic” and the IC50 [11] was 12.8 µM. The concentration at 120 h [12] was 720 ng/mL, the concentration at 120 h [13] was 9110 ng/mL and the half-life (in vivo [14]) was 3.38 h. The concentration at 120 h [15] was 4170 ng/mL, the logD (physchem [16]) was 2.4 and the IC50 [17] was 29.5 µM.
`CS(=O)(=O)CCNC(=O)c1ccc2cc(Oc3ccc(C(F)(F)F)cn3)ccc2n1` showed an Activity (Rattus norvegicus [18]) of 68%, a Papp (in vitro) of 18 ×10⁻⁶ cm/s and a bioavailability (in vivo [4]) of 80.4%. The Activity (Rattus norvegicus [19]) was 35%, the solubility (physchem [7]) was 29 µM (≈ 12.7 µg/mL) and the Activity (Rattus norvegicus [20]) was 63%. For the same molecule, the IC50 [17] was 30 µM.
